# Laboratory results from BindingDB's records for doi:10.1002/cbic.200400108 (Schering, 2005).
# Values joined by “and” are separate entries in the source; they are usually repeats but may differ in a detail not shown here. Equal values may be shown once.
# Target: Insulin receptor (Homo sapiens, UniProt P06213)
# Test: Inhibition Assay
# Conditions: pH 7.5; 22 °C
# Text: (§1) Inhibition assay using CDK and selective kinases such as gsk3, EGFR, c-Kit, InsR and KDR.
# Chain of Insulin receptor (P06213 28-758 limits assumed): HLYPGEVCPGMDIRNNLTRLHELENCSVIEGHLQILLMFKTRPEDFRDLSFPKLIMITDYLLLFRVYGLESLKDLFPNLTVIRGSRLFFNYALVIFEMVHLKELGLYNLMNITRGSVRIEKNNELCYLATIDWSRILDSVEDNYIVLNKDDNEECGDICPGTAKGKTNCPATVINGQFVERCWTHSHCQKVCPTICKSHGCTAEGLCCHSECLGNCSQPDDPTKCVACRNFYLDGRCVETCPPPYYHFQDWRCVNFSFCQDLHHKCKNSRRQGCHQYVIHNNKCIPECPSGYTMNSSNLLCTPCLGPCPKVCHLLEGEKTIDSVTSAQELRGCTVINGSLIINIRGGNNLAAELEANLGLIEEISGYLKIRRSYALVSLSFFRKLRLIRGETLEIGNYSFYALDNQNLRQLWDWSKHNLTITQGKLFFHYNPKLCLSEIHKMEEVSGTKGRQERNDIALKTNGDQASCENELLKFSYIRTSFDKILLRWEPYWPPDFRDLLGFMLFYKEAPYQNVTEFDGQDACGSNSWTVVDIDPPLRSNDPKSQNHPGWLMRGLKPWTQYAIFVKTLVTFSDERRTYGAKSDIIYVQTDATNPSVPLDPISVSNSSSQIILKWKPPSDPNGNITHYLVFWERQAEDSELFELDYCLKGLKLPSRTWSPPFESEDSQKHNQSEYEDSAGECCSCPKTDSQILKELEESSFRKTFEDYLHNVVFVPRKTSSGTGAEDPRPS
# Chain of Insulin receptor (P06213 763-1382 limits assumed): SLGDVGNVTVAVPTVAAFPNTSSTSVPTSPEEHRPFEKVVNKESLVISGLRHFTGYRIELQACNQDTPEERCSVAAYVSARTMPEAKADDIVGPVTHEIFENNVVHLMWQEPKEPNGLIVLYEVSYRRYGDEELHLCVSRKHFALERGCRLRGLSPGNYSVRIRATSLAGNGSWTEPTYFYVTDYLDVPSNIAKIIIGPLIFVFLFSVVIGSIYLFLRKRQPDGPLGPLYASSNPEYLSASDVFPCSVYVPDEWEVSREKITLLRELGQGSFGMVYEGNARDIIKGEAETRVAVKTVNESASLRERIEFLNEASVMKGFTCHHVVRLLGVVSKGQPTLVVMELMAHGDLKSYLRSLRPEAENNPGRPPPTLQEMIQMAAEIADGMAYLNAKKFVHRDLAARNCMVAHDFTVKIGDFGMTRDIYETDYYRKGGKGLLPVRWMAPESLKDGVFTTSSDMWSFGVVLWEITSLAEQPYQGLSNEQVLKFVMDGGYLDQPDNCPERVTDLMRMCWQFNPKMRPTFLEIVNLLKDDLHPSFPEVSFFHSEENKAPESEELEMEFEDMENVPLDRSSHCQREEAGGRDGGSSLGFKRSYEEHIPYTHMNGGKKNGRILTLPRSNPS
row,Structure (SMILES),IC50
1,O=C1Nc2ccc(Br)cc2C1=C1Nc2ccccc2C1=O,> 10 µM
2,"O=C1Nc2ccc(S(=O)(=O)O)cc2C1=C1Nc2ccccc2C1=O [Indirubin derivative, 20]",> 10 µM

# Other lines, results leading:
row,IC50,Structure (SMILES)
1,> 10 µM,"CN(C)CCN(C)S(=O)(=O)c1ccc2c(c1)C(C1=Nc3ccccc3C1(C)O)C(=O)N2 (stereo unspecified) [Indirubin derivative, 28b]"
2,> 10 µM,"C=CCC1(O)C(C2C(=O)Nc3ccc(S(=O)(=O)N(C)CCN(C)C)cc32)=Nc2ccccc21 (stereo unspecified) [Indirubin derivative, 30b]"

# Target: Epidermal growth factor receptor (Homo sapiens, UniProt P00533)
# Sequence (P00533 whole entry): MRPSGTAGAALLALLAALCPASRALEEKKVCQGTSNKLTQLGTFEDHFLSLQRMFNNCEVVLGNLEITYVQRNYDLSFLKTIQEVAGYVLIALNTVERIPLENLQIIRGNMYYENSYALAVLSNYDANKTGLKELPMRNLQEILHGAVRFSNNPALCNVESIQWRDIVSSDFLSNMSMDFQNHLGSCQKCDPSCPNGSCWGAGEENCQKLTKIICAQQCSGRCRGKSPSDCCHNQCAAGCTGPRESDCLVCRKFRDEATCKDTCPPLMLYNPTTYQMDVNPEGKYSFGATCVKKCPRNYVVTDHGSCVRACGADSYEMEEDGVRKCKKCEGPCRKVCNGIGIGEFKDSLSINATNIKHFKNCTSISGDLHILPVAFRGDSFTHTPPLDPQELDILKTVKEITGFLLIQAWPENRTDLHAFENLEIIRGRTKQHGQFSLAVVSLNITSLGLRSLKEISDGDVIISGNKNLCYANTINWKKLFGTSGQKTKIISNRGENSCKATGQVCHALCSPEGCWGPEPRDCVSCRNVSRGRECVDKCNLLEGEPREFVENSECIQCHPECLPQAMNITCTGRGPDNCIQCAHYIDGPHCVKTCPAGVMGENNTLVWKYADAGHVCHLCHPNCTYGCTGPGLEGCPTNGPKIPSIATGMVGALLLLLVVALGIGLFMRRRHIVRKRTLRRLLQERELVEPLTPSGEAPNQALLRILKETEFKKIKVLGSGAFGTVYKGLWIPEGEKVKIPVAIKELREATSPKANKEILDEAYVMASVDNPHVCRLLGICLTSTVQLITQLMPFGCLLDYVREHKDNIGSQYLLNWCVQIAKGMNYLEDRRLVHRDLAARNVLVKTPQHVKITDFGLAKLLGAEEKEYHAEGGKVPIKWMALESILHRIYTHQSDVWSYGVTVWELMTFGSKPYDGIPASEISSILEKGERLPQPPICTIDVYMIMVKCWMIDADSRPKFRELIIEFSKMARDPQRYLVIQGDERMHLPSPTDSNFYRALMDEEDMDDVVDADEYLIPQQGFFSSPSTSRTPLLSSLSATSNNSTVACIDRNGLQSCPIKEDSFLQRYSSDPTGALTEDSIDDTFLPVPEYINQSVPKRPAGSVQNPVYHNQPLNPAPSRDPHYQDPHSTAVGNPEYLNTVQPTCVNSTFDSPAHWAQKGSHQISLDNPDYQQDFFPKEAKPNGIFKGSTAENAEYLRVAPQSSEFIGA
# Test: Inhibition Assay
# Conditions: pH 7; 22 °C
# Text: as §1
row,Structure (SMILES),IC50
1,O=C1Nc2ccc(Br)cc2C1=C1Nc2ccccc2C1=O,> 10 µM
2,"O=C1Nc2ccc(S(=O)(=O)O)cc2C1=C1Nc2ccccc2C1=O [Indirubin derivative, 20]",> 10 µM

# Continued, values first:
row,IC50,Structure (SMILES)
1,> 10 µM,"CN(C)CCN(C)S(=O)(=O)c1ccc2c(c1)C(C1=Nc3ccccc3C1(C)O)C(=O)N2 (stereo unspecified) [Indirubin derivative, 28b]"
2,> 10 µM,"C=CCC1(O)C(C2C(=O)Nc3ccc(S(=O)(=O)N(C)CCN(C)C)cc32)=Nc2ccccc21 (stereo unspecified) [Indirubin derivative, 30b]"

# Target: Cyclin-dependent kinase 2 (Homo sapiens, UniProt P24941)
# Test: Inhibition Assay
# Conditions: pH 8; 22 °C
# Text: as §1
row,Structure (SMILES),IC50
1,"O=C1Nc2ccccc2/C1=C1/Nc2ccccc2C1=O [2-[(3Z)-2-oxo-2,3-dihydro-1H-indol-3-ylidene]-2,3-dihydro-1H-indol-3-one]",2 µM
2,"CN(C)S(=O)(=O)c1ccc2c(c1)C(=C1Nc3ccccc3C1=O)C(=O)N2 [Indirubin derivative, 8]",0.04 µM
3,"CN(C)CCN(C)S(=O)(=O)c1ccc2c(c1)C(=C1Nc3ccccc3C1=O)C(=O)N2 [Indirubin derivative, 22]",0.01 µM
4,"CN(C)CCN(C)S(=O)(=O)c1ccc2c(c1)C(c1[nH]c3ccccc3c1N=O)C(=O)N2 (stereo unspecified) [Indirubin derivative, 23]",0.04 µM
5,"CN(C)CCN(C)S(=O)(=O)c1ccc2c(c1)/C(=C1/Nc3ccccc3/C1=N\OCCO[C@@H]1O[C@H](CO)[C@@H](O)[C@H](O)[C@H]1O)C(=O)N2 [Indirubin derivative, 25]",0.09 µM
6,"CC1(O)C(C2C(=O)Nc3ccc(Br)cc32)=Nc2ccccc21 (stereo unspecified) [Indirubin derivative, 26]",3 µM
7,"CN(C)S(=O)(=O)c1ccc2c(c1)C(C1=Nc3ccccc3C1(C)O)C(=O)N2 (stereo unspecified) [Indirubin derivative, 27b]",0.07 µM and 0.6 µM

# The remaining lines, values ahead:
row,IC50,Structure (SMILES)
1,3 µM and > 10 µM,"CN(C)S(=O)(=O)c1ccc2c(c1)C(C1=Nc3ccccc3C1(O)C(O)CO)C(=O)N2 (stereo unspecified) [Indirubin derivative, 31b]"
2,0.08 µM,"O=C1Nc2ccc(S(=O)(=O)NCCO)cc2C1=C1Nc2ccccc2C1=O [Indirubin derivative, 33]"
3,1.5 µM,"O=C(O)CCNS(=O)(=O)c1ccc2c(c1)C(=C1Nc3ccccc3C1=O)C(=O)N2 [Indirubin derivative, 34]"
4,0.45 µM,"CN(C[C@H](O)[C@@H](O)[C@H](O)[C@H](O)CO)S(=O)(=O)c1ccc2c(c1)C(=C1Nc3ccccc3C1=O)C(=O)N2 [Indirubin derivative, 35]"
5,0.08 µM,"CN(C)S(=O)(=O)c1ccc2c(c1)/C(=C1/Nc3ccccc3/C1=N\OCCO[C@@H]1O[C@H](CO)[C@@H](O)[C@H](O)[C@H]1O)C(=O)N2 [Indirubin derivative, 36 (X=NO)]"
6,0.02 µM,"CN(C)C1CCN(S(=O)(=O)c2ccc3c(c2)C(=C2Nc4ccccc4C2=O)C(=O)N3)CC1 [Indirubin derivative, 36 (X=O)]"
7,1.6 µM,"CC1(O)C(C2C(=O)Nc3ccc(S(=O)(=O)N4CCC(O)CC4)cc32)=Nc2ccccc21 (stereo unspecified) [Indirubin derivative, 37]"

# Target: Vascular endothelial growth factor receptor 2 (Homo sapiens, UniProt P35968)
# Sequence (P35968 whole entry): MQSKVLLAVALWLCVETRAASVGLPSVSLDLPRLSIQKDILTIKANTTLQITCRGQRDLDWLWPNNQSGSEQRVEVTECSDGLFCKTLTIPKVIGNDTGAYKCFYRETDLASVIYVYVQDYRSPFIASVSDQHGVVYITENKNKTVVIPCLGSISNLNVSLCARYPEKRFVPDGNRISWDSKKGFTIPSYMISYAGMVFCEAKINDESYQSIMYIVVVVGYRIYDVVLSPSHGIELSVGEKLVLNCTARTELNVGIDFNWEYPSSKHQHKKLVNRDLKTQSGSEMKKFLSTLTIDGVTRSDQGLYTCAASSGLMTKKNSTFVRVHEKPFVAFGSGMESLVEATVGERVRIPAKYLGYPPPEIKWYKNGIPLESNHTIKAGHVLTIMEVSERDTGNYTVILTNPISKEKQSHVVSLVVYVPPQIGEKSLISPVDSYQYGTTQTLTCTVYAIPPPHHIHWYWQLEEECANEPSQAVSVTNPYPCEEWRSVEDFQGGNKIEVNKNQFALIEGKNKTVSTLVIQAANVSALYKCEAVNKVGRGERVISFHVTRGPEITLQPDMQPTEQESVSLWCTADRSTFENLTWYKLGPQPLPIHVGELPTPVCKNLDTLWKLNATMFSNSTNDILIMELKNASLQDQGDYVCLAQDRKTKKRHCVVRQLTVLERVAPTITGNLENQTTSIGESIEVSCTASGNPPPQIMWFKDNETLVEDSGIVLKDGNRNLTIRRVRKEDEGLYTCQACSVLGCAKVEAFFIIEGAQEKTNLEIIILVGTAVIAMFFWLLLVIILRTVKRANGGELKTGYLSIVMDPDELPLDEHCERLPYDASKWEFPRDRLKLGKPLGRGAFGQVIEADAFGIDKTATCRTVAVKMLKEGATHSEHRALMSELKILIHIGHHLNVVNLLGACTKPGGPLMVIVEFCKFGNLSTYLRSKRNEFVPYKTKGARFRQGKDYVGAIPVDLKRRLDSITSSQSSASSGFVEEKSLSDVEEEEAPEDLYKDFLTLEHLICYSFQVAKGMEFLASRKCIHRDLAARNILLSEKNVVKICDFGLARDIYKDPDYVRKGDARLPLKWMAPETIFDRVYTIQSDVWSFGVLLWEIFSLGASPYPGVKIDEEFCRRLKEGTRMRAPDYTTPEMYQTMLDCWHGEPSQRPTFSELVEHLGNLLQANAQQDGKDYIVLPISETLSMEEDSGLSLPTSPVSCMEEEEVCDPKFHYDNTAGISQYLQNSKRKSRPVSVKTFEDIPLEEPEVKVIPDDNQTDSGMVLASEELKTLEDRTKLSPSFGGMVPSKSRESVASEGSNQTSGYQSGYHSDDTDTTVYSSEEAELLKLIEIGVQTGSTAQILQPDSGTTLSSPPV
# Test: Inhibition Assay
# Conditions: pH 7; 22 °C
# Text: as §1
row,Structure (SMILES),IC50
1,O=C1Nc2ccc(Br)cc2C1=C1Nc2ccccc2C1=O,> 10 µM
2,"O=C1Nc2ccc(S(=O)(=O)O)cc2C1=C1Nc2ccccc2C1=O [Indirubin derivative, 20]",> 10 µM

# Results, then the compound that gave them:
row,IC50,Structure (SMILES)
1,> 10 µM,"CN(C)CCN(C)S(=O)(=O)c1ccc2c(c1)C(C1=Nc3ccccc3C1(C)O)C(=O)N2 (stereo unspecified) [Indirubin derivative, 28b]"
2,> 10 µM,"C=CCC1(O)C(C2C(=O)Nc3ccc(S(=O)(=O)N(C)CCN(C)C)cc32)=Nc2ccccc21 (stereo unspecified) [Indirubin derivative, 30b]"
